The test system of experiment [1] is IL-1β. Put plainly: In-vitro IL-1β inhibition assay in PMA-differentiated, LPS-primed, ATP-stimulated THP1 cells. The note with it: Homo sapiens, THP-1; THP1 monocytes differentiated with PMA, primed with 500 ng/mL LPS, compound 30 min, 5 mM ATP 1 hr; IL-1β in supernatant; read-out: IC50 (nM), invitro IL-1β inhibitory activity. Type of experiment: cell-based. The method, then: THP1 monocytes were differentiated with PMA (100 ng/mL) and incubated at 37 deg C. for 20 hrs in presence of 5% CO2. 2×10^5 differentiated cells were plated per well of 96 well tissue culture plates. The cells were primed using 500 ng/mL Lipopolysaccharide and incubating for 4 h under the same condition. The cells were then treated with various concentrations of the compounds for 30 min followed by treatment with 5 mM ATP for 1 hr. The supernatants were collected and analyzed by IL-1b (Mabtech Cat #3415-1H-20) or TNF-α (Mabtech; Cat #3510-1H-20) detection kit. The data were analyzed using GraphPad Prism V7.0. Dose Response Curve (DRC) was constructed to determine the IC50 value by fitting percentage […] data to the GraphPad Prism using nonlinear regression analysis.

In experiment [2] the test system is IL-1β. Put plainly: In-vivo LPS and ATP induced IL-1β assay. The note with it: Mus musculus, 2.5 h; Dose 10 mpk, po; female C57 mice; serum IL-1β by ELISA; read-out: % IL-1β inhibition in LPS + ATP challenged C57 mice. The method, then: All the animal experiments were carried out in female rats and mice, bred in-house. Animals were housed in groups of 6 animals per cage, for a week, in order to habituate them to vivarium conditions (25 f 4° C., 60-65% relative humidity, 12:12 h light:dark cycle, with lights on at 7.30 am). All the animal experiments were carried out according to the internationally valid guidelines following approval by the ‘Zydus Research Center animal ethical committee’.
Female C57 mice (6-8 weeks) received intraperitoneal injection of 50 μg/mouse of lipopolysaccharide (LPS) in PBS. Animals were treated immediately with the test compounds or the vehicle. After 2 h of LPS injection, animals were administered with ATP at 12.5 mg/mouse dissolved in PBS via intraperitoneal route. After 30 minutes of ATP injection, serum was collected for IL-1β estimation by ELISA.
For orientation: ELISA stands for enzyme-linked immunosorbent assay.

Each structure is given as a SMILES string.

In the case of `CCCN1CCC[C@@H]1/C=C/S(=O)(=O)NC(=O)Nc1c2c(cc3c1CCC3)CCC2` [Example 4, (R,E)-N-((1,2,3,5,6,7-hexahydro-s-indacen-4-yl)carbamoyl)-2-(1-propylpyrrolidin-2-yl)ethene-1-sulfonamide], the IC50 (as a rule, the midpoint of a concentration-inhibition curve) in the experiment on IL-1β [1] was determined as 7.4 nM. The inhibition in vivo at 10 mg/kg in the experiment with IL-1β [2] was found to be 90%.

On to `C[C@]1(/C=C/S(=O)(=O)NC(=O)Nc2c3c(cc4c2CCC4)CCC3)CCCN1S(C)(=O)=O` [Example 55, (R,E)-N-((1,2,3,5,6,7-hexahydro-s-indacen-4-yl)carbamoyl)-2-(2-methyl-1-(methylsulfonyl)-pyrrolidin-2-yl)ethene-1-sulfonamide], for which, in the experiment on IL-1β [2], the inhibition in vivo at 10 mg/kg is 82.5%.

In the case of `CC(=O)N1CCC[C@H]1/C=C/S(=O)(=O)NC(=O)Nc1c2c(cc3c1CCC3)CCC2` [Example 69, (S,E)-2-(1-acetylpyrrolidin-2-yl)-N-((1,2,3,5,6,7-hexahydro-s-indacen-4-yl)carbamoyl)-ethenesulfonamide], in the experiment with IL-1β [2], the inhibition in vivo at 10 mg/kg came to 84%.

On to `O=C(Nc1c2c(cc3c1CCC3)CCC2)NS(=O)(=O)/C=C/C1CCCO1` (centres unmarked) [Example 73, (E)-N-((1,2,3,5,6,7-hexahydro-s-indacen-4-yl)carbamoyl)-2-(tetrahydrofuran-2-yl)ethene-1-sulfonamide], for which, in the experiment on IL-1β [2], the inhibition in vivo at 10 mg/kg amounted to 80%.

In the case of `CC(C)c1cc(F)cc(C(C)C)c1NC(=O)NS(=O)(=O)/C=C/[C@@H]1CCCN1C` [Example 77, (S,E)-N-((4-fluoro-2,6-diisopropylphenyl)carbamoyl)-2-(1-methylpyrrolidin-2-yl)ethene-1-sulfonamide], the inhibition in vivo at 10 mg/kg in the experiment on IL-1β [2] turned out to be 47%.

In the case of `CN1CCCCC1/C=C/S(=O)(=O)NC(=O)Nc1c2c(cc3c1CCC3)CCC2` (centres unmarked) [Example 101, (E)-N-((1,2,3,5,6,7-hexahydro-s-indacen-4-yl)carbamoyl)-2-(1-methylpiperidin-2-yl)ethene-1-sulfonamide], the inhibition in vivo at 10 mg/kg in the experiment on IL-1β [2] is 82%.

For the compound `CN1CCC[C@H]1/C=C/S(=O)(=O)NC(=O)Nc1cc2c(c3c1CCC3)CCC2` [Example 102, (E)-N-((1,2,3,6,7,8-hexahydro-as-indacen-4-yl)carbamoyl)-2-(1-methylpyrrolidin-2-yl)ethene-1-sulfonamide], the inhibition in vivo at 10 mg/kg in the experiment on IL-1β [2] came out at 74%.
